The assay deals with T1, GR (Homo sapiens, UniProt P04150).
T1 construct: expressed in transfected cells; host or cells: CHO-K1
T1 sequence (P04150 1-777): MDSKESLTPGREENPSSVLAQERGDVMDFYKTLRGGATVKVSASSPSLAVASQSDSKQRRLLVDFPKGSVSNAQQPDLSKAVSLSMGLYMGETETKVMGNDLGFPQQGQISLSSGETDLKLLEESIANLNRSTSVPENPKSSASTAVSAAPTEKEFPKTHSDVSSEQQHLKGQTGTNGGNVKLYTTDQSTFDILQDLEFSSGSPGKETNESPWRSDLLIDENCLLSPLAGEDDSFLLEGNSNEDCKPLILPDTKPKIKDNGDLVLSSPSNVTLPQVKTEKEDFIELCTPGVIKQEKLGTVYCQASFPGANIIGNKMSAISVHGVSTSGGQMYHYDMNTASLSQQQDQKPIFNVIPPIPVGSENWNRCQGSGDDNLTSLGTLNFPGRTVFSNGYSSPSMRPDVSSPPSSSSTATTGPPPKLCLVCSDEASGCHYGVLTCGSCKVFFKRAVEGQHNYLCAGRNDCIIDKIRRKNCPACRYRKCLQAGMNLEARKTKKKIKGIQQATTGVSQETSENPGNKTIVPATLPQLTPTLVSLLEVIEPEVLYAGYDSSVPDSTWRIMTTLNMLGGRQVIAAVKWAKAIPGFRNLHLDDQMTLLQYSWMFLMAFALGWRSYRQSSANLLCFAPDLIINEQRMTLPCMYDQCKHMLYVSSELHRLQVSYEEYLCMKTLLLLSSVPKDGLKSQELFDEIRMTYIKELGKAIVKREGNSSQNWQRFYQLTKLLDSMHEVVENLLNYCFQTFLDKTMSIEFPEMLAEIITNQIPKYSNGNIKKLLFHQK
Description: In Vitro GR Luciferase Reporter Assay (antagonist mode, CHO-K1-GR-MMTV-Luc reporter cells). The following applies: antagonist mode, 10 nM Dexamethasone. Type of assay: cell-based. The gist of the method:
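Antagonist mode: compounds (8 serial 1:5 dilutions) added to GR-MMTV-luciferase CHO-K1 reporter cells co-exposed to 10 nM dexamethasone final, in phenol red-free DMEM plus 10% CSS. After roughly 18-24 h at 37° C, OneGlo luminescence read and IC50 calculated.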
Usually IC50 stands for the point on the concentration scale where inhibition reaches its midpoint. In turn, `Cn1cc(S(=O)(=O)N(CCF)[C@H]2CCC3=Cc4c(cnn4-c4ccc(F)cc4)C[C@]3(C(=O)c3ncc(C(F)(F)F)s3)C2)nn1` [Example 394, N-(2-fluoroethyl)-N-((4aS,6S)-1-(4-fluorophenyl)-4a-(5-(trifluoromethyl)thiazole-2-carbonyl)-4,4a,5,6,7,8-hexahydro-1H-benzo[f]indazol-6-yl)-1-methyl-1H-1,2,3-triazole-4-sulfonamide] displayed an IC50 not above 100 nM.
For `Cn1cc(S(=O)(=O)N(CCF)[C@H]2CCC3=Cc4c(cnn4-c4ccc(F)cc4)C[C@]3(C(=O)c3cc(C(F)(F)F)ccn3)C2)nn1` [Example 395, N-(2-fluoroethyl)-N-((4aS,6S)-1-(4-fluorophenyl)-4a-(4-(trifluoromethyl)picolinoyl)-4,4a,5,6,7,8-hexahydro-1H-benzo[f]indazol-6-yl)-1-methyl-1H-1,2,3-triazole-4-sulfonamide], the half-inhibitory concentration (IC50) is not above 100 nM.
With `Cn1cc(S(=O)(=O)N(CCF)[C@H]2CCC3=Cc4c(cnn4-c4ccc(F)cc4)C[C@]3(C(=O)c3ncc(C(F)(F)F)s3)C2)cn1` [Example 396, N-(2-fluoroethyl)-N-((4aS,6S)-1-(4-fluorophenyl)-4a-(5-(trifluoromethyl)thiazole-2-carbonyl)-4,4a,5,6,7,8-hexahydro-1H-benzo[f]indazol-6-yl)-1-methyl-1H-pyrazole-4-sulfonamide] the figure was not above 100 nM; with `Cn1ccc(S(=O)(=O)N(CCF)[C@H]2CCC3=Cc4c(cnn4-c4ccc(F)cc4)C[C@]3(C(=O)c3cc(F)ccn3)C2)n1` [Example 397, N-(2-fluoroethyl)-N-((4aS,6S)-1-(4-fluorophenyl)-4a-(4-fluoropicolinoyl)-4,4a,5,6,7,8-hexahydro-1H-benzo[f]indazol-6-yl)-1-methyl-1H-pyrazole-3-sulfonamide], not above 100 nM.
Turning to `COCCN([C@H]1CCC2=Cc3c(cnn3-c3ccc(F)cc3)C[C@]2(C(=O)c2ncc(C(F)(F)F)s2)C1)S(=O)(=O)c1ncn(C)n1` [Example 398, N-((4aS,6S)-1-(4-fluorophenyl)-4a-(5-(trifluoromethyl)thiazole-2-carbonyl)-4,4a,5,6,7,8-hexahydro-1H-benzo[f]indazol-6-yl)-N-(2-methoxyethyl)-1-methyl-1H-1,2,4-triazole-3-sulfonamide], the IC50 is not above 100 nM.
For `Cn1ccc(S(=O)(=O)N(C2CC2)[C@H]2CCC3=Cc4c(cnn4-c4ccc(F)nc4)C[C@]3(C(=O)c3ncc(C(F)(F)F)s3)C2)n1` [Example 399, N-cyclopropyl-N-((4aS,6S)-1-(6-fluoropyridin-3-yl)-4a-(5-(trifluoromethyl)thiazole-2-carbonyl)-4,4a,5,6,7,8-hexahydro-1H-benzo[f]indazol-6-yl)-1-methyl-1H-pyrazole-3-sulfonamide] the value was not above 100 nM.
Turning to `Cn1ccc(S(=O)(=O)N(CC(=O)OC(C)(C)C)[C@H]2CCC3=Cc4c(cnn4-c4ccc(F)cc4)C[C@]3(C(=O)c3cc(C(F)(F)F)ccn3)C2)n1` [Example 400, tert-butyl N-((4aS,6S)-1-(4-fluorophenyl)-4a-(4-(trifluoromethyl)picolinoyl)-4,4a,5,6,7,8-hexahydro-1H-benzo[f]indazol-6-yl)-N-((1-methyl-1H-pyrazol-3-yl)sulfonyl)glycinate], the 50% inhibitory concentration (IC50) is not above 100 nM.
For `Cn1ccc(S(=O)(=O)N(CC(=O)O)[C@H]2CCC3=Cc4c(cnn4-c4ccc(F)cc4)C[C@]3(C(=O)c3cc(C(F)(F)F)ccn3)C2)n1` [Example 401, N-((4aS,6S)-1-(4-fluorophenyl)-4a-(4-(trifluoromethyl)picolinoyl)-4,4a,5,6,7,8-hexahydro-1H-benzo[f]indazol-6-yl)-N-((1-methyl-1H-pyrazol-3-yl)sulfonyl)glycine] the value was 100 to 1000 nM.
For `Cn1ccc(S(=O)(=O)N(C2CC2)[C@H]2CCC3=Cc4c(cnn4-c4ccc(F)nc4)C[C@]3(C(=O)c3cc(C(F)(F)F)ccn3)C2)n1` [Example 402, N-cyclopropyl-N-((4aS,6S)-1-(6-fluoropyridin-3-yl)-4a-(4-(trifluoromethyl)picolinoyl)-4,4a,5,6,7,8-hexahydro-1H-benzo[f]indazol-6-yl)-1-methyl-1H-pyrazole-3-sulfonamide] the value was not above 100 nM; for `Cn1ccc(S(=O)(=O)N(CCF)[C@H]2CCC3=Cc4c(cnn4-c4ccc(F)cc4)C[C@]3(C(=O)c3cc(Cl)ccn3)C2)n1` [Example 403, N-((4aS,6S)-4a-(4-chloropicolinoyl)-1-(4-fluorophenyl)-4,4a,5,6,7,8-hexahydro-1H-benzo[f]indazol-6-yl)-N-(2-fluoroethyl)-1-methyl-1H-pyrazole-3-sulfonamide], not above 100 nM.
For `COCCOCCN([C@H]1CCC2=Cc3c(cnn3-c3ccc(F)cc3)C[C@]2(C(=O)c2cc(C(F)(F)F)ccn2)C1)S(=O)(=O)c1ccc(F)cc1` [Example 404, 4-fluoro-N-((4aS,6S)-1-(4-fluorophenyl)-4a-(4-(trifluoromethyl)picolinoyl)-4,4a,5,6,7,8-hexahydro-1H-benzo[f]indazol-6-yl)-N-(2-(2-methoxyethoxy)ethyl)benzene-sulfonamide] the value was not above 100 nM; for `O=C(c1ncc(C(F)(F)F)s1)[C@]12Cc3cnn(-c4ccc(F)cc4)c3C=C1CC[C@H](N(CC(F)F)S(=O)(=O)c1ccc(F)cc1)C2` [Example 405, N-(2,2-difluoroethyl)-4-fluoro-N-((4aS,6S)-1-(4-fluorophenyl)-4a-(5-(trifluoromethyl)thiazole-2-carbonyl)-4,4a,5,6,7,8-hexahydro-1H-benzo[f]indazol-6-yl)benzenesulfonamide], not above 100 nM; for `Cn1cc(S(=O)(=O)N(C2CC(F)(F)C2)[C@H]2CCC3=Cc4c(cnn4-c4ccc(F)cc4)C[C@]3(C(=O)c3ncc(C(F)(F)F)s3)C2)cn1` [Example 406, N-(3,3-difluorocyclobutyl)-N-((4aS,6S)-1-(4-fluorophenyl)-4a-(5-(trifluoromethyl)thiazole-2-carbonyl)-4,4a,5,6,7,8-hexahydro-1H-benzo[f]indazol-6-yl)-1-methyl-1H-pyrazole-4-sulfonamide], not above 100 nM.
With `O=C(c1cc(C(F)(F)F)ccn1)[C@]12Cc3cnn(-c4ccc(F)cc4)c3C=C1CC[C@H](N(CC(F)F)S(=O)(=O)c1ccc(F)cc1)C2` [Example 407, N-(2,2-difluoroethyl)-4-fluoro-N-((4aS,6S)-1-(4-fluorophenyl)-4a-(4-(trifluoromethyl)picolinoyl)-4,4a,5,6,7,8-hexahydro-1H-benzo[f]indazol-6-yl)benzenesulfonamide], the IC50 is not above 100 nM.
For `Cn1ccc(S(=O)(=O)N([C@H]2CCC3=Cc4c(cnn4-c4ccc(F)cc4)C[C@]3(C(=O)c3ncc(C(F)(F)F)s3)C2)[C@H]2C[C@@H](C#N)C2)n1` [Example 408, N-((1s,3R)-3-cyanocyclobutyl)-N-((4aS,6S)-1-(4-fluorophenyl)-4a-(5-(trifluoromethyl)thiazole-2-carbonyl)-4,4a,5,6,7,8-hexahydro-1H-benzo[f]indazol-6-yl)-1-methyl-1H-pyrazole-3-sulfonamide] the value was not above 100 nM; for `Cn1cnc(S(=O)(=O)N(CC2CC2)[C@H]2CCC3=Cc4c(cnn4-c4ccc(F)cc4)C[C@]3(C(=O)c3cc(F)ccn3)C2)n1` [Example 409, N-(cyclopropylmethyl)-N-((4aS,6S)-1-(4-fluorophenyl)-4a-(4-fluoropicolinoyl)-4,4a,5,6,7,8-hexahydro-1H-benzo[f]indazol-6-yl)-1-methyl-1H-1,2,4-triazole-3-sulfonamide], not above 100 nM; for `Cn1cnc(S(=O)(=O)N(CC2CC2)[C@H]2CCC3=Cc4c(cnn4-c4ccc(F)cc4)C[C@]3(C(=O)c3cc(Cl)ccn3)C2)n1` [Example 410, N-((4aS,6S)-4a-(4-chloropicolinoyl)-1-(4-fluorophenyl)-4,4a,5,6,7,8-hexahydro-1H-benzo[f]indazol-6-yl)-N-(cyclopropylmethyl)-1-methyl-1H-1,2,4-triazole-3-sulfonamide], not above 100 nM.
With `Cn1cc(S(=O)(=O)N(C2CC(F)(F)C2)[C@H]2CCC3=Cc4c(cnn4-c4ccc(F)cc4)C[C@]3(C(=O)c3cc(C(F)(F)F)ccn3)C2)cn1` [Example 411, N-(3,3-difluorocyclobutyl)-N-((4aS,6S)-1-(4-fluorophenyl)-4a-(4-(trifluoromethyl)picolinoyl)-4,4a,5,6,7,8-hexahydro-1H-benzo[f]indazol-6-yl)-1-methyl-1H-pyrazole-4-sulfonamide] the figure was not above 100 nM.

(Values after US20210122730A1, “GLUCOCORTICOID RECEPTOR MODULATORS” (ORIC Pharmaceuticals, Inc., priority 2017, published 2021).)
